Results reported in patent US7943606B2, “Compositions and methods to control abnormal cell growth” (CanCure Laboratories, LLC, priority 2005, dated 2011).

Tests used:
Format in all cases: cell-based, human
[1] = system: choline transport; assay: [14C]choline uptake and metabolism in AN3CA, MCF-7 and MEL-28 cancer cells; conditions: 100 μM CCDTHT or 0.5 mM HC-3, 2 hours, each cell line
Protocol: MEL-28 and MCF-7 cells were cultured in MEM medium supplemented with 10% fetal bovine serum (FBS) and in DMEM medium supplemented with 10% FBS, respectively. The AN3CA human endometrial adenocarcinoma cells were maintained in Eagle's MEM containing 10% FBS. Cancer cells were grown up to confluency in 12-well plates in 10% fetal-bovine serum-containing medium, then incubated in the presence of 1 μCi of [methyl-^14C]choline (bought from Amersham; Piscataway, N.J.) for 2 hours. Cells were first rapidly (within 30 seconds) washed three times with 4 ml of serum-free medium, then extracted with ice-cold methanol. This was followed by the determination of cellular free radiolabeled choline and phosphocholine (PCho) by column chromatography as described earlier [Kiss, Z. and Crilly, K. S. (1995), “Tamoxifen inhibits uptake and metabolism of ethanolamine and choline in multidrug-resistant, but not in drug-sensitive, MCF-7 human breast carcinoma cells,” FEBS Lett. 360, 165-168], and the separation and determination of radiolabeled phosphatidylcholine (PtdCho) by thin layer chromatography as indicated in Kiss [Kiss, Z. (1996), “Direct proof that phorbol ester accelerates the use of choline phosphate for phosphatidylcholine synthesis in intact cells,” Arch. Biochem. Biophys. 335, 191-196].
MCF-7 and MEL-28 cells were cultured as described earlier. The AN3CA human endometrial adenocarcinoma cells were maintained in Eagle's MEM containing 10% FBS. Each cell type was grown in 12-well plates to confluency and then incubated with 1 μCi of [methyl-^14C]choline for 2 hours in the absence (□) or presence of 100 μM CCDTHT ? or 0.5 mM HC-3 (▪), followed by the determination of cellular contents of radiolabeled choline (A), PCho (B) and PtdCho (C), as indicated in FIG. 9. […] Thus, if both CCDTHT and HC-3 influenced cell viability solely via inhibition of choline metabolism, then these agents should similarly affect cell viability, at least at the concentrations used in the choline transport experiment.

[2] = system: HTB-157 cells; assay: Viability of HTB-157 fetal (normal) fibroblasts
Protocol: (§1) To quantify cell death, around the time when significant and characteristic morphological changes took place, cells were pulse-labeled for 10 minutes with [^3H]thymidine to measure DNA activity as described elsewhere [Tomono, M. and Kiss, Z. (1995), “Ethanol enhances the stimulatory effects of insulin and insulin-like growth factor-I on DNA synthesis in NIH 3T3 fibroblasts,” Biochem. Biophys. Res. Commun. 208, 63-67]. Also, cells were collected as suspensions using trypsin, an established method in cell biology, followed by re-plating of cells in fresh tissue culture medium. If no viable cells were obtained after one week in culture, it meant that the cells at the time of re-plating were dead. Survival values obtained with untreated cells were considered 100%. For the determination of relative number of viable cells after treatments, in most cases the MTT assay was used. This calorimetric assay is based on the ability of living cells, but not dead cells, to reduce 3-(4,5-dimethyl thiazol-2-yl)-2,5-diphenyltetrazolium bromide [Carmichael, J, De Graff, W. G., Gazdar, A. F., Minna, J. D. and Mitchell, J. B. (1987), “Evaluation of tetrazolium-based semi-automated calorimetric assay: Assessment of chemosensitivity testing,” Cancer Res. 47, 936-942]. For this assay, cells were plated in 96-well plates, and the MTT assay was performed both in untreated and treated cell cultures. The MTT assay also was performed at the start of treatments to allow assessment of proliferation rates in the control and treated cell cultures.
(§2) NIH3T3, T47D, A-431, HT-29, and MEL-28 cells were cultured as indicated earlier. CaOV-3 human ovarian cancer cells were cultured in DMEM containing 10% FBS. ZR-75-1 human estrogen receptor-positive breast cancer cells were maintained in RPMI 1640 medium supplemented with 10% FBS. HTB-157 human fetal fibroblasts, MEL-24 human malignant melanoma cells, Hep G2 human hepatoblastoma cells, and CaCO-2 human colon adenocarcinoma cells were maintained in Eagles's MEM containing 10% FBS. MB-231 human estrogen receptor-negative breast cancer cells were maintained in Leibovitz's L-15 medium supplemented with 10% FBS. Cells were seeded into 96-well plates and treated at ˜70-90% confluency. Two hours prior to treatments the medium was changed for fresh 10% serum medium, and then the cells were incubated for 10 days in the absence (□) or presence of 50 μM CCDTHT ? or 100 μM CCDTHT (▪). The medium was changed and the cells were re-treated on days 3 and 6. The MTT assay was used to determine cell viability on day 10. The data, shown in FIG. 6, are the mean±std. dev. of 8 incubations in one experiment. (The experiment was repeated twice with similar results).
(§3) HTB-157, MEL-28, CaOV-3, T47D, and A-431 cells were maintained as indicated earlier. The 3A-SubE post crisis placenta cells (capable of unlimited proliferation) were maintained in Eagle's MEM containing 10% FBS. Cells were seeded into 96-well plates and treated at ˜70-90% confluency. Two hours before treatments the medium was changed for fresh 10% serum medium, and then cells were incubated for 48 hours in the absence (□) or presence of 50 μM CCDTHT ? or 100 μM CCDTHT (▪). Half of the cultures was analyzed by the MTT assay at this point, and the other half of the cultures was incubated for an additional 96 hours in fresh 10% serum-containing medium without CCDTHT followed by the MTT assay. The data, shown in FIG. 8, are the mean±std. dev. of 8 incubations in one experiment. (Similar results were obtained in another experiment).
(§4) HaCaT keratinocytes, frequently used immortalized model cells for studying psoriatic keratinocytes, and HTB-157 human fetus lung fibroblasts were cultured in 10% FBS-containing Dulbecco's modified Eagle's medium (DMEM). […]

[3] = Viability of HTB-157 fetal (normal) fibroblasts; conditions: human, MTT
Protocol: as §1, §2, §3, §4

## CC[N+](C)(CC)CCOCc1ccc2sc3ccccc3c(=O)c2c1.[I-] [CCDTHT, N,N-diethyl-N-methyl-2-[(9-oxo-9H-thioxanthen-2-yl)methoxy]-ethanaminium iodide]
[1]
  inhibitory effects on choline uptake and metabolism (choline, PCho, PtdCho): comparably strong inhibitory effects
[2]; 100 μM 48 hours, then 96 hours without CCDTHT
  reversibility: proliferation in fresh medium after treatment, HTB-157: clearly resumed proliferation
[2]; 100 μM, 48 hours
  decrease in DNA synthesis, HTB-157 fibroblasts: about 16%
[2]; 100 μM, re-plated after treatment
  numbers of re-plated untreated and treated HTB-157 fibroblasts: practically no difference
[2]; 50-100 μM, 48 hours, MTT
  decrease in viability of HTB-157 fibroblasts: 19-20%
[2]; 50 and 100 μM, 72 hours, MTT
  sensitivity compared with HaCaT cells, HTB-157 fibroblasts: significantly less sensitive
[3]; HTB-157 fetal (normal) fibroblasts, 100 μM, 10 days, read-out: reduction in the number of viable cells, HTB-157
  cytotoxicity at 10 days, 100 μM: ≤ 50%
[3]; HTB-157 fetal lung (normal) fibroblasts, 50-100 μM, 48 hours, read-out: decrease in viability of HTB-157 fibroblasts
  cytotoxicity at 48 h: 20 to 22%
